Measurements published in ChEMBL document CHEMBL5674879, “Enhancer variants reveal a conserved transcription factor network governed by PU.1 during osteoclast differentiation” (Bone Res, 2018).
Calls of active or inactive are those of the source.

Legend:
Assay type in all cases: functional, cell-based
[1] = tested on: Leukemia cell; test: Downregulation of Nfatc1 mRNA expression in osteoclasts of human CSF1-induced mouse primary bone marrow derived acute myeloid leukemia cells at 250 nM measured by RT-qPCR analysis
[2] = tested on: Leukemia cell; test: Downregulation of Fosl2 mRNA expression in osteoclasts of human CSF1-induced mouse primary bone marrow derived acute myeloid leukemia cells at 250 nM measured by RT-qPCR analysis
[3] = tested on: Leukemia cell; test: Effect on osteoclast differentiation in human CSF1-induced mouse primary bone marrow derived acute myeloid leukemia cells at 250 nM assessed as reduction in PU.1 enrichment at PU.1 enhancers near Nfatc1 measured by Conventional ChIP analysis
[4] = tested on: Leukemia cell; test: Effect on osteoclast differentiation in human CSF1-induced mouse primary bone marrow derived acute myeloid leukemia cells at 250 nM assessed as reduction in PU.1 enrichment at PU.1 enhancers near d Fosl2 measured by Conventional ChIP analysis

Measured: Activity

Cc1sc2c(c1C)C(c1ccc(Cl)cc1)=N[C@@H](CC(=O)OC(C)(C)C)c1nnc(C)n1-2
active: [1] | [2] | [3] | [4]
